{"source": "paper PMC7391456", "about": "“Targeting fibroblast activation protein (FAP): next generation PET radiotracers using squaramide coupled bifunctional DOTA and DATA^5m chelators” (EJNMMI Radiopharmacy and Chemistry, 2020)", "key": {"human FAP": {"molecular_target": "T1, human FAP (Homo sapiens, UniProt Q12884)", "T1 construct": "the human secretion signal was replaced with the HoneyBee mellitin secretion signal; HoneyBee mellitin secretion signal (replaces the native signal-anchor) (N); C-terminal tag of the BaculoDirect C-term kit (C); made in house; host or cells: Sf9 insect cells (baculovirus); purified from the supernatant", "T1 sequence (Q12884 26-760 limits assumed)": "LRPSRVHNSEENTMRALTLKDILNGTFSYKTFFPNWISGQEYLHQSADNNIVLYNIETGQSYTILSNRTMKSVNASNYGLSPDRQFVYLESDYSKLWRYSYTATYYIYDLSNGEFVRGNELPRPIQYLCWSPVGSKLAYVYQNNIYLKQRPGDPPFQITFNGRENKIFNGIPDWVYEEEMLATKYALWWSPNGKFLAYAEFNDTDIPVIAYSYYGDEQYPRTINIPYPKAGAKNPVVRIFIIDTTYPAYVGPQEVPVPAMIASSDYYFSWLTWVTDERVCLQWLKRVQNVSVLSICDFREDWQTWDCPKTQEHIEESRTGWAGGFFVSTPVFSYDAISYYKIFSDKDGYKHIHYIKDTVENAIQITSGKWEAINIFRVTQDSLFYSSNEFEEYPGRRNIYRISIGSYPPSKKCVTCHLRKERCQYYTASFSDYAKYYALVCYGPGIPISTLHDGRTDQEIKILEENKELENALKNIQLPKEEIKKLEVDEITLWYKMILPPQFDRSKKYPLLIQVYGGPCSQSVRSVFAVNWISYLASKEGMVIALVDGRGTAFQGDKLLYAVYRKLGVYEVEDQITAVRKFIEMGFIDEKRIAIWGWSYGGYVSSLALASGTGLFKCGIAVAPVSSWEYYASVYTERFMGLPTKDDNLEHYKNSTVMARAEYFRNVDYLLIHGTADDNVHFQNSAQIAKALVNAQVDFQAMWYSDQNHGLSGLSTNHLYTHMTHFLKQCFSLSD", "experiment": "FAP inhibition assay (IC50, Z-Gly-Pro-AMC substrate)", "format": "biochemical", "conditions": "for IC50: Z-Gly-Pro-AMC 50 μM, pH 8, 15 min pre-incubation at 37 °C; for Selectivity index (IC50 PREP / IC50 FAP): ratio of the IC50 values for FAP and PREP", "source_text": "(§1) Enzymes: A gateway-entry clone for human FAP was purchased from Dharmacon (Accession number DQ891423) and the human secretion signal was replaced with the HoneyBee mellitin secretion signal. For transfection and expression of FAP in Sf9 insect cells, the C-terminal BaculoDirect kit from LifeTechnologies was used. The enzyme was purified from the supernatant of the insect cells using immobilized Ni-chelating chromatography (GE healthcare, Diegem, Belgium), followed by anion-exchange chromatography using a 1 mL HiTrap Q (GE healthcare, Diegem, Belgium). Human recombinant PREP was expressed in BL21(DE3) cells and purified using immobilized Co-chelating chromatography (GE healthcare) followed by anion-exchange chromatography on a 1 ml Mono Q column (GE healthcare).\nEight concentrations of inhibitors were tested. The final DMSO concentration was kept constant during the experiment to exclude any solvent effects. Inhibitors were pre-incubated with the enzyme for 15 min at 37 °C, afterwards the substrate was added and the velocities of AMC release were measured kinetically at λex = 380 nm, λem = 465 nm for at least 10 min at 37 °C. The Infinite 200 (Tecan Group Ltd.) micro-titer plate reader and the Magellan software were used for measurement and data processing respectively.\n(§2) The data were fitted using a non-linear fit model in GraFit 7 software, according to the following equation: y=range/1+x/IC50^s where y is the value of the residual enzymatic activity compared to a non-inhibited sample, x is the final inhibitor concentration in the assay, s is the slope factor and the IC50 is the half maximal inhibitory concentration."}, "[1]": {"experiment": "Stability studies of gallium-68 complexes in media (EtOH, human serum, saline, PBS)", "format": "physicochemical", "conditions": "different media (summary statement)", "description": "Gallium-68 stability studies against transmetallation (Fe, Cu, Ca, Mg), transchelation (EDTA, DTPA) as well as in HS, EtOH and saline (0.9% isotone NaCl-solution) were performed. 50 μl of the [^68Ga]Ga-DOTA.SA.FAPi labeling solution with > 95% radiochemical purity were added to 1 mL of the respective media. The measured time points for gallium-68 were 15, 30, 45, 60, 90, 120 min. HS (human male AB plasma, USA origin) was bought from Sigma Aldrich, PBS was purchased from Sigma Aldrich and 0.9% saline from B. Braun Melsungen AG (Melsungen, Germany)."}, "Human recombinant PREP": {"molecular_target": "T2, Human recombinant PREP (Homo sapiens, UniProt P48147)", "T2 sequence (P48147 1-710)": "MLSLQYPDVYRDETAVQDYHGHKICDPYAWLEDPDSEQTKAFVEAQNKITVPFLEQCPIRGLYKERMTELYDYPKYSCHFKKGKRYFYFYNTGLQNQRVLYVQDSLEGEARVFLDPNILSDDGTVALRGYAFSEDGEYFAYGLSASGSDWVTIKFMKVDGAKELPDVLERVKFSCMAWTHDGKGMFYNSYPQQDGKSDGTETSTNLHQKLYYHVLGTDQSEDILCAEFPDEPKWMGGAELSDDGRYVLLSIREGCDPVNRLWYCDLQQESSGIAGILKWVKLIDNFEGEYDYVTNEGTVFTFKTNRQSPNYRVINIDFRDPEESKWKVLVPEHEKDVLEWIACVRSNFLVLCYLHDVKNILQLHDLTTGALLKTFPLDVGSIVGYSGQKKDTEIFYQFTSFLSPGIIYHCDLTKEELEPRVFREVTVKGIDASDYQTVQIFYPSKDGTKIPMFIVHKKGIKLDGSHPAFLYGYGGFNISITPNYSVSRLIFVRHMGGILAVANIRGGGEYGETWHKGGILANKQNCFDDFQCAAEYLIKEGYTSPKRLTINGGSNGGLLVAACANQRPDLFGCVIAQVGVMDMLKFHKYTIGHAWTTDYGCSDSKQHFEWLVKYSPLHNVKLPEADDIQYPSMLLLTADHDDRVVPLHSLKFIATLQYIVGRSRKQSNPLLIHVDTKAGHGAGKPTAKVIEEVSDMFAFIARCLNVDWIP", "experiment": "PREP inhibition assay (IC50, N-succinyl-Gly-Pro-AMC substrate)", "format": "biochemical", "conditions": "N-succinyl-Gly-Pro-AMC 250 μM, pH 7.4, 15 min pre-incubation at 37 °C", "source_text": "as §1\nEight concentrations of inhibitors were tested. The final DMSO concentration is kept constant during the experiment to exclude any effects. Inhibitors were pre-incubated with the enzyme for 15 min at 37 °C, afterwards the substrate was added and the velocities of AMC release were measured kinetically at λex = 380 nm, λem = 465 nm for at least 10 min at 37 °C. The Infinite 200 (Tecan Group Ltd.) micro-titer plate reader and the Magellan software were used for measurement and data processing, respectively.\nas §2"}, "FAP": {"tested_on": "FAP", "set-up": "method as in originally published value", "conditions": "different FAP substrate (Ala-Pro-pNA); ref originally published value; cited from earlier work"}, "HT-1080 FAP": {"tested_on": "HT-1080 FAP", "set-up": "method as in Lindner et al. [2018]", "conditions": "HT-1080 FAP tumor model, read from graphs; ref Lindner et al. [2018]; cited from earlier work"}, "PANC-1": {"tested_on": "PANC-1", "set-up": "method as in Watabe et al. [2020]", "conditions": "read from graphs, ref Watabe et al. [2020], cited from earlier work"}, "MIA-PaCa-2": {"tested_on": "MIA-PaCa-2", "set-up": "method as in Watabe et al. [2020]", "conditions": "MIA-PaCa-2 tumor model, read from graphs; ref Watabe et al. [2020]; cited from earlier work"}, "[2]": {"conditions": "PANC-1 / MIA-PaCa-2, one value given"}}}
{"smiles": "CN(CC(=O)O)C1(CCCCC(=O)NCCNc2c(NCCCCOc3ccc4nccc(C(=O)NCC(=O)N5CC(F)(F)C[C@H]5C#N)c4c3)c(=O)c2=O)CN(CC(=O)O)CCN(CC(=O)O)C1", "note": "[DATA^5m.SA.FAPi, (S)-2,2′-(6-((carboxymethyl)(methyl)amino)-6-(5-((2-((2-((4-((4-((2-(2-cyano-4,4-difluoropyrrolidin-1-yl)-2-oxoethyl)carbamoyl)quinolin-6-yl)oxy)butyl)amino)-3,4-dioxocyclobut-1-en-1-yl)amino)ethyl)amino)-5-oxopentyl)-1,4-diazepane-1,4-diyl) diacetic acid]", "values": [{"measurement": "IC50", "setting": "human FAP", "value": "0.8 ± 0.2", "unit": "nM"}, {"measurement": "Selectivity index (IC50 PREP / IC50 FAP)", "setting": "human FAP", "value": 2113}, {"measurement": "Stability in different media, intact conjugate", "setting": "[1]", "value": "more than 95%"}, {"measurement": "IC50", "setting": "Human recombinant PREP", "value": "1700 ± 100", "unit": "nM"}]}
{"smiles": "N#C[C@@H]1CC(F)(F)CN1C(=O)CNC(=O)c1ccnc2ccc(OCCCCNc3c(NCCNC(=O)CN4CCN(CC(=O)O)CCN(CC(=O)O)CCN(CC(=O)O)CC4)c(=O)c3=O)cc12", "note": "[DOTA.SA.FAPi, (S)-2,2′,2″-(10-(2-((2-((2-((4-((4-((2-(2-cyano-4,4-difluoropyrrolidin-1-yl)-2-oxo-ethyl)carbamoyl)quinolin-6-yl)oxy)butyl)amino)-3,4-dioxocyclobut-1-en-1-yl)amino)ethyl)amino)-2-oxoethyl)-1,4,7,10-tetraazacyclododecane-1,4,7-triyl) triacetic acid]", "values": [{"measurement": "IC50", "setting": "human FAP", "value": "0.9 ± 0.1", "unit": "nM"}, {"measurement": "Selectivity index (IC50 PREP / IC50 FAP)", "setting": "human FAP", "value": 6000}, {"measurement": "Stability in different media, intact conjugate", "setting": "[1]", "value": "more than 95%"}, {"measurement": "IC50", "setting": "Human recombinant PREP", "value": "5400 ± 300", "unit": "nM"}]}
{"smiles": "N#C[C@@H]1CC(F)(F)CN1C(=O)CNC(=O)c1ccnc2ccc(OCCCN3CCN(C(=O)CN4CCN(CC(=O)[O-])CCN(CC(=O)[O-])CCN(CC(=O)[O-])CC4)CC3)cc12.[68Ga+3]", "note": "[[^68Ga]Ga-FAPI-04]", "values": [{"measurement": "SUVmean(60 min p.i.) Heart", "setting": "HT-1080 FAP", "value": 0.16}, {"measurement": "SUVmean(60 min p.i.) Kidney", "setting": "HT-1080 FAP", "value": 0.33}, {"measurement": "SUVmean(60 min p.i.) Liver", "setting": "HT-1080 FAP", "value": 0.11}, {"measurement": "SUVmean(60 min p.i.) Muscle", "setting": "HT-1080 FAP", "value": 0.06}, {"measurement": "SUVmean(60 min p.i.) Tumor", "setting": "HT-1080 FAP", "value": 0.45}, {"measurement": "SUVmean(60 min p.i.) Heart", "setting": "PANC-1; [2]", "value": 0.17}, {"measurement": "SUVmean(60 min p.i.) Kidney", "setting": "PANC-1; [2]", "value": 0.36}, {"measurement": "SUVmean(60 min p.i.) Liver", "setting": "PANC-1; [2]", "value": 0.67}, {"measurement": "SUVmean(60 min p.i.) Muscle", "setting": "PANC-1; [2]", "value": 0.03}, {"measurement": "SUVmean(60 min p.i.) Tumor", "setting": "PANC-1; PANC-1 tumor model", "value": 0.14}, {"measurement": "SUVmean(60 min p.i.) Tumor", "setting": "MIA-PaCa-2", "value": 0.11}]}
